Key:
cystinotic fibroblasts = experiment: Cystine depletion during constant drug exposure in cystinotic fibroblasts; type: cell-based, human; conditions: 100 uM constant exposure, 0-5 h; vs cystamine
Protocol: In vitro experiments with isotopically enriched cystamine in cystinotic fibroblasts. Fibroblasts from a de-identified cystinotic patient were split 3× from 2 plates into 36 plates. Three different drugs were used for the experiments: cystamine (non-labeled), d2-cystamine, and d4-cystamine. There were two time series for each drug. The first was with constant drug incubation and included: 0, 10 min, 30 min, 1 h, 3 h, and 5 h. The other series included a washout after 3 h drug incubation, using fresh media following a PBS wash, and included the timepoints: 0, 30 min, 1 h, 3 h, 5 h, and 17 h. A direct quench and extraction technique were used for harvesting all cells to minimize further oxidation and metabolism. This included 2× washes with PBS that included 5 mM N-ethylmaleimide for trapping free thiol groups, and then scraping the plates with an acidified organic solvent extraction solution containing both d4-cystine and d4-cysteamine (plus d-8 cystamine) as internal standards. All samples were run on an API 4500 triple quadrupole LC-MS/MS, with selective reaction monitoring (SRM/MRM) for the following compounds of interest: cystine, NEM-cysteamine, NEM-cysteine, cystamine, and 2-(methylthio)ethylamine. All data fit well to single exponential curves (either decay or association), except where mentioned.
Following incubation, cells were washed 2× in PBS containing N-ethylmaleimide.
Fibroblasts from a de-identified cystinotic patient were split 3× from 2 plates into 18 plates. Two different drugs were used for the experiments: D4n-cystamine, and D8-cystamine. There were two time series for each drug. The first was with constant drug incubation and included: 0, 15 min, 30 min, 1 hr, and 3 hr. The other series included a washout after 3 hours of drug incubation, using fresh media following a PBS wash, and included the time-points: 0, 1 hr, 3 hr, and 16 hr. A direct quench and extraction technique was used for harvesting all cells to minimize further oxidation and metabolism. […] All samples were run on an API 4500 triple quadruple LC-MS/MS, with selective reaction monitoring (SRM/MRM) for the following compounds of interest: cystine, NEM-cysteamine, NEM-cysteine, and cystamine. All data fit well to single exponential curves (either decay or association), except where mentioned.

[1] = Pharmacokinetics of cystamine and D4-cystamine in rats (monomer measured in plasma); type: in vivo, Sprague Dawley rats
Protocol: Pharmacokinetics of Cystamine in Rats.
In the experimental study 5 Sprague Dawley rats were used: 2 rats were used for control (non-deuterated cystamine) and 3 rats were used for the study compound (D4 cystamine).
Blood was sampled at 0, 20 min, 40 min, 1, 2, 4 and 6 hours (7 total samples per rat). Approximately 160 μl of whole blood was collected into an EDTA retro-orbital blood collection tube and briefly mixed to insure uniform mixing of EDTA. The blood was quickly transferred into a clean ependorf tube containing 40 μl of fresh 150 mM NEM, mixed and incubated at room temperature for 10 minutes. The Eppendorf tube was centrifuged at 3000 rmp for 5 minute sto pellet RBC and collect plasma into a fresh Eppendorf tube. The volume of the plasma was measured by pipette. Formic acid was added to the plasma to a concentration of 1% and mixed.

[2] = test system: C57BL/6 male mice on CDAHFD diet; experiment: In vivo NASH model, prevention phase (drug in drinking water, 8 weeks); conditions: about 200 mg/kg/day in drinking water, n=8 per group
Protocol: In vivo NASH Models. NASH models from normal C57BL/6 male mice on CDAHFD diet (choline deficient, L-amino acid defined, high fat diet with restricted amount of methionine) were used. Two deuterated cystamine molecules were tested:
Two phase study was performed: (1) A prevention and (2) a treatment phase. 48 Mice were separated into nine groups of mice as described below. Histology at end of each study was performed looking for specific features of NASH (steatohepatitis, ballooning, fibrosis). The primary endpoint was plasma ALT measurement. Gene expression studies for fibrosis, inflammation were also performed.
Drug (D2 or D4) was administered in drinking water at a concentration to deliver animals about 200 mg/kg/day of drug. Daily weight. Volume of fluid drunk/day was also measured.
Prevention Phase. Group 1: Control mice on CDAHFD for 8 weeks. Blood drawn at 0, 4, and 8 weeks. Group 2: Mice on CDAHFD plus D2 at 200 mg/kg/day for 8 weeks. Blood drawn at 0, 4, and 8 weeks. Group 3: Mice on CDAHFD plus D4 at 200 mg/kg/day for 8 weeks. Blood drawn at 0, 4, and 8 weeks. Group 4: Control mice (n=4) continue on CDAHFD for 2 weeks. Blood at baseline and at 2 weeks. Liver histology at 2 weeks. Group 5: Mice (n=4) on CDAHFD for 2 weeks plus D2 at 200 mg/kg/day administered via daily gavage. Blood at 0 and 2 weeks and histology at 2 weeks. […]

Pooled human hepatocytes = experiment: Hepatocyte elimination (in vitro metabolic stability, percent parent remaining by LC/MS/MS); type: in vitro ADME; conditions: compared with other forms
Excerpt: In vitro experiments with isotopically enriched cystamine and cysteamine in hepatocytes.
The assessment of in vitro metabolic stability provides a means to measure the susceptibility of a test compound to biotransformation by the liver. While liver microsomes primarily assess cytochrome P450 system-mediated metabolism (phase I metabolism), hepatocytes represent a complete, undisrupted metabolic system, including cofactors, and thus assess both phase I and phase II metabolism. In all cases, the metabolic stability of test compounds was determined by monitoring, via LC/MS/MS, the percent parent compound remaining versus time of incubation in human hepatocytes.
Pooled human hepatocytes (catalog number HMCS10, ThermoFischer Scientific) were thawed according to the manufacturers instructions. Thawed hepatocytes were washed by centrifugation and replated in Williams' Medium E supplemented with Heptocyte Plating Supplement Pack, Serum-containing.
Cells were diluted to 1,000,000 per ml in maintenance media (Williams' E Media supplemented with Hepatocyte Maintenance Supplement Pack, Serum-free). 500 μl of cell suspension was added to each well of a microtiter plate containing 500 μl of the deuterated test agent and placed on an orbital shaker at 120 rpm at 37 C. At the appropriate time point 50 μl aliquots were removed from the well and added to 50 μl of ice cold ethyl acetate and vortexed for 5 min and froze until chromatography analysis.

Compound: [2H]C([2H])(CN)SSC([2H])([2H])CN [D4-Cystamine, 2,2′-disulfanediylbis(ethan-2,2-d2-1-aminium) chloride]
- Rate of intracellular cystine depletion, comparison in words (cystinotic fibroblasts): nearly identical
- AUC relative to non-deuterated cystamine [1]: at least 1.6 ×
- Cmax relative to non-deuterated cystamine [1]: ~2 ×
- AUC of derived monomer, comparison in words ([1]; vs cystamine derived cysteamine): much higher
- ALT levels at 8 weeks versus control group [2]: not between the control group and D4
- Rate of hepatocyte elimination / stability, comparison in words (Pooled human hepatocytes): most stable of the dimeric compounds
- Rate of hepatocyte elimination / stability, comparison in words (Pooled human hepatocytes; listed as D4 cystamine): slower rate than D2 or non-deuterated cystamine

Source: US12391643B2, “Substituted amino-thiol and amino-disulfide compounds, and uses thereof” (The Regents of the University of California, priority 2019, dated 2025)
